Experimental data taken from PMC6413024, “Multimerization Increases Tumor Enrichment of Peptide–Photosensitizer Conjugates” (Molecules, 2019).

Legend:
[1] = UV–Vis absorption and fluorescence spectra in DMSO; type: physicochemical; conditions: for λmax: UV–Vis absorption in DMSO, Q-band, recorded from 300 to 800 nm; for λem: fluorescence emission in DMSO, Hitachi F-4500, 2.0 µM, excitation at approximately 668 nm; for Stokes Shift: in DMSO
Experimental: (§1) The UV–Vis absorption spectra and fluorescence spectra of the synthesized conjugates of Pyro-MonoRGD, Pyro-DiRGD, Pyro-TriRGD, and free Pyro were measured in DMSO. Absorption spectra were recorded from 300 to 800 nm. Fluorescence emission and excitation spectra were recorded from 550 to 800 nm upon excitation at approximately 668 nm and emission at 672–673 nm using a Hitachi model F-4500 FL spectrophotometer (Tokyo, Japan). The singlet oxygen quantum yields (ΦΔ) of the conjugates were measured in DMSO using DPBF as the quencher and Pyro as the reference.

[2] = Singlet oxygen quantum yield in DMSO; type: physicochemical; conditions: DPBF as the quencher and Pyro as the reference
Experimental: as §1

[3] = cited from earlier work
Text: (§2) Pyro is a very promising photosensitizer with ideal photoactivity properties, including a high extinction coefficient (3.79 × 10^4 L mol^−1 cm^−1) and a high singlet oxygen quantum yield (over 50%). […] Solving the tumor enrichment problem is very important for its clinical application. Here, to further increase the affinity of RGD peptide-coupled Pyro conjugates to the receptor αvβ3 integrin, we synthesized multimeric RGD-coupled Pyro conjugates to increase the affinity via multivalent and cluster effects, thereby improving the upt ...

[4] = tested on: tumors in a mouse model; conditions: general statement on Pyro; no reference given at the statement; cited from earlier work
Text: as §2

[5] = target: human isolated αvβ3 integrin receptors (ITGAV&ITGB3 heterodimer) (Homo sapiens, UniProt P05106+P06756); test: Receptor binding assay: competitive inhibition of biotinylated vitronectin binding to αvβ3 integrin; conditions: for IC50: biotinylated vitronectin 2.0 μg/mL, integrin 2.0 μg/mL in PBS pH 7.4, 4 °C overnight, test compounds 10^−3 to 10^−11 M, 3 h, 37 °C shaker, streptavidin–HRP/TMB, absorbance 450 nm, nonlinear regression GraphPad Prism 5.0, means ± SD of triplicate determinations
Experimental: Human integrin αvβ3 (ITGAV&ITGB3) heterodimer protein was diluted to 2.0 μg/mL in PBS buffer (pH 7.4) and was then added to a 96-well plate (100 μL/well) and incubated overnight at 4 °C. The plate was blocked with 10% milk solution for an additional 2 h in a 37 °C shaker, followed by a 3 h incubation in the 37 °C shaker with various concentrations (10^−3 to 10^−11 M) of test compounds in the presence of biotinylated vitronectin (2.0 μg/mL). After washing, the plates were incubated for 1 h in the 37 °C shaker with streptavidin–HRP and then washed again, followed by 30 min of incubation with 100 μL/well TMB single-component substrate solution before stopping the reaction with the addition of 100 μL/well 2.0 N H2SO4. The absorbance at 450 nm was read on a microplate reader. Each data point represents the average of the triplicate wells, and data analysis was performed using nonlinear regression analysis with GraphPad Prism 5.0 software (GraphPad Software, Inc., San Diego, CA, USA.).

[6] = tested on: U87-MG tumor; type: in vivo, Balb/c nude mice; human U87-MG cells
Text: To examine the tumor enrichment of these conjugates in vivo, we prepared a xenograft tumor model by subcutaneously inoculating mice with U87-MG tumor cells ([…]) on the axilla. U87-MG cells have high expression levels of the αvβ3 integrin receptor. When the tumors grew to approximately 200 mm^3 in volume, the conjugates (50 nmol per mouse) were intravenously injected into the mice via the tail vein. The fluorescence signal and intensity distribution were continuously monitored using an in vivo fluorescence imaging system (IVIS Lumina II, Xenogen, Alameda, CA, USA). […] However, relatively weak fluorescence signals in the tumor site could be detected. […] The increased water hydrophilicity of the divalent and trivalent conjugates may contribute to the reduction in the liver accumulation.
Human U87-MG cells (4 × 10^6 cells/mouse) were subcutaneously inoculated on the axilla of female Balb/c nude mice. […] In vivo fluorescence analysis was performed before and after the injection at various time points using the IVIS Lumina imaging system (IVIS Lumina II, Xenogen, USA) with a Cy5.5 filter (excitation: 615–665 nm, emission: 695–770 nm). Alternatively, the mice were euthanized at 2 h postinjection, and major organs, including the heart, liver, spleen, lungs, kidneys, and muscles, as well as the tumor, were collected; fluorescence images were then acquired.

[7] = tested on: U87-MG tumor; type: in vivo, Balb/c nude mice; human U87-MG cells; conditions: 50 nmol/mouse i.v.; mice euthanized 2 h postinjection; vs the other two conjugates; triplicates
Experimental: To further verify the tumor targeting ability of these conjugates, the mice were euthanized 2 h postinjection, and their organs were collected for imaging. As shown in Figure 3B (heart, liver, spleen, lungs, and tumor from left to right), when the valence of the conjugates increased, the fluorescence signal in the tumor region increased.
Human U87-MG cells (4 × 10^6 cells/mouse) were subcutaneously inoculated on the axilla of female Balb/c nude mice. When the tumors grew to 200 mm^3, the mice were divided into three groups with each group containing three mice. The mice were then intravenously injected with 50 nmol/mouse of Pyro-MonoRGD, Pyro-DiRGD, and Pyro-TriRGD, respectively. In vivo fluorescence analysis was performed before and after the injection at various time points using the IVIS Lumina imaging system (IVIS Lumina II, Xenogen, USA) with a Cy5.5 filter (excitation: 615–665 nm, emission: 695–770 nm). Alternatively, the mice were euthanized at 2 h postinjection, and major organs, including the heart, liver, spleen, lungs, kidneys, and muscles, as well as the tumor, were collected; fluorescence images were then acquired.

[8] = tested on: αvβ3 integrin receptor; conditions: compared with antibody molecules; no reference given at the statement; cited from earlier work
Text: However, compared with antibody molecules, small molecule ligands have a much weaker affinity to their receptors, which makes their tumor enrichment not always ideal. In our former work, we coupled a very promising photosensitizer, pyropheophorbide-a (Pyro), which has ideal photosensitizer properties, with a small molecule tumor homing ligand—cyclo(-RGDfK-)—to prepare a tumor-targeted conjugate. The cyclic peptide cyclo(-RGDfK-), which contains a conformationally restrained RGD sequence, has been often used for targeting tumor imaging and/or therapeutic agents as a high affinity ligand ...

Compound | λmax [1] | λem [1] | Stokes Shift [1] | singlet oxygen quantum yield ΦΔ [2] | IC50 [5] | also measured
C=Cc1c(C)c2cc3nc(c4c5[nH]c(cc6nc(cc1[nH]2)C(C)=C6CC)c(C)c5C(=O)C4)[C@@H](CCC(=O)O)[C@@H]3C [Pyro, pyropheophorbide-a, reference compound] | 668 nm | 673 nm | 5 nm | 0.52 | – | extinction coefficient [3]: 37900 L/mol/cm; singlet oxygen quantum yield [3]: over 50%; tumor localization ability [4]: very limited tumor localization ability
C=Cc1c(C)c2cc3nc(c4c5[nH]c(cc6nc(cc1[nH]2)C(C)=C6CC)c(C)c5C(=O)C4)[C@@H](CCC(=O)NCCCOCCOCCOCCCNC(=O)C[C@@H]1NC(=O)[C@@H](Cc2ccccc2)NC(=O)[C@H](CC(=O)O)NC(=O)CNC(=O)[C@H](CCCNC(=N)N)NC1=O)[C@@H]3C [Pyro-MonoRGD] | – | – | – | – | 951 ± 39.6 nM | –
C=Cc1c(C)c2cc3nc(c4c5[nH]c(cc6nc(cc1[nH]2)C(C)=C6CC)c(C)c5C(=O)C4)[C@@H](CCC(=O)NC(COCCC(=O)NCCCOCCOCCOCCCNC(=O)C[C@@H]1NC(=O)[C@@H](Cc2ccccc2)NC(=O)[C@H](CC(=O)O)NC(=O)CNC(=O)[C@H](CCCNC(=N)N)NC1=O)COCCC(=O)NCCCOCCOCCOCCCNC(=O)C[C@@H]1NC(=O)[C@@H](Cc2ccccc2)NC(=O)[C@H](CC(=O)O)NC(=O)CNC(=O)[C@H](CCCNC(=N)N)NC1=O)[C@@H]3C (stereo partly drawn) [Pyro-DiRGD] | 668 nm | 673 nm | 5 nm | 0.47 | 313 ± 23.1 nM | –
C=Cc1c(C)c2cc3nc(c4c5[nH]c(cc6nc(cc1[nH]2)C(C)=C6CC)c(C)c5C(=O)C4)[C@@H](CCC(=O)NC(COCCC(=O)NCCCOCCOCCOCCCNC(=O)C[C@@H]1NC(=O)[C@@H](Cc2ccccc2)NC(=O)[C@H](CC(=O)O)NC(=O)CNC(=O)[C@H](CCCNC(=N)N)NC1=O)(COCCC(=O)NCCCOCCOCCOCCCNC(=O)C[C@@H]1NC(=O)[C@@H](Cc2ccccc2)NC(=O)[C@H](CC(=O)O)NC(=O)CNC(=O)[C@H](CCCNC(=N)N)NC1=O)COCCC(=O)NCCCOCCOCCOCCCNC(=O)C[C@@H]1NC(=O)[C@@H](Cc2ccccc2)NC(=O)[C@H](CC(=O)O)NC(=O)CNC(=O)[C@H](CCCNC(=N)N)NC1=O)[C@@H]3C (stereo partly drawn) [Pyro-TriRGD] | 668 nm | 673 nm | 5 nm | 0.48 | 43.8 ± 8.2 nM | binding to integrin αvβ3, fold better than Pyro-DiRGD ([5]; ratio vs divalent Pyro-DiRGD): 7 -fold; binding to integrin αvβ3, fold better than Pyro-MonoRGD ([5]; ratio vs monovalent Pyro-MonoRGD): 20 -fold; tumor accumulation, 2–6 h postinjection ([6]; 50 nmol/mouse i.v., 2–6 h postinjection): excellent tumor accumulation at 2–6 h postinjection; tumor enrichment, overall comparison ([6]; compared with the other two conjugates): had the best tumor enrichment compared with the other two conjugates; fluorescence intensity in excised tumor, 2 h postinjection [7]: the highest fluorescence intensity at the tumor site
cyclo(-RGDfK-) | – | – | – | – | – | affinity to αvβ3 integrin receptor [8]: only has a moderate affinity to the αvβ3 integrin receptor
